Values quoted from earlier work as cited in patent US20120114757A1, “PARTICLES COMPRISING DROSPIRENONE ENCAPSULATED IN A POLYMER” (BAYER PHARMA AKTIENGESELLSCHAFT, priority 2009, published 2012).

## C[C@]12CCC(=O)C=C1[C@@H]1C[C@@H]1[C@H]1[C@@H]3[C@@H]4C[C@@H]4[C@@]4(CCC(=O)O4)[C@@]3(C)CC[C@@H]12 [Drospirenone, 6β,7β;15β,16β-dimethylene-3-oxo-17α-pregn-4-ene-21,17-carbolactone]
Acid conditions
  stability under acid conditions: rearranged to an inactive isomer
Various pH values
  solubility in water and aqueous buffers: sparingly soluble
